From patent publication US12534699B2, “Method for promoting growth of bacteria of genus Bifidobacterium” (KABUSHIKI KAISHA YAKULT HONSHA, priority 2019, dated 2026)

Experiments:
[1] = system: Bifidobacterium breve YIT 12272 (BbY); assay: Culture of BbY in skimmed milk culture medium with L-cystine or L-cysteine (simultaneous / individual heating); format: cell-based; conditions: for growth rate of the viable cell count, simultaneous versus individual heating (growth curve): final concentration 0.03% (w/v), FIG. 2; for viable cell count and acidity versus culture medium not containing L-cystine and L-cysteine: simultaneous heating culture medium (skimmed milk or whey), 0.001 to 0.1% (w/v), FIGS. 3 and 4; for concentration at which the viable cell count was maximum: skimmed milk simultaneous heating culture medium, culture time 9 hours
Experimental: (§1) Bifidobacterium breve YIT 12272 (hereinafter, referred to as BbY), Bifidobacterium bifidum YIT 10347 (hereinafter, referred to as BF-1), Lactobacillus casei YIT 9029 (hereinafter, referred to as YIT 9029), and Lactobacillus acidophilus YIT 0198 (hereinafter, referred to as YIT 0198) were used.
A skimmed milk powder (ABC, manufactured by MEGMILK SNOW BRAND Co., Ltd.) was dissolved in RO water at 12% (w/v), the solution was dispensed in 10 mL aliquots in a rimmed medium-sized test tube while replacing the headspace with nitrogen gas and sealed with a butyl rubber stopper. […] In addition, a skimmed milk culture medium (simultaneous heating culture medium) was prepared in anaerobic conditions by adding an L-cystine (manufactured by Kyowa Hakko Bio Co., Ltd.) aqueous suspension or an L-cysteine hydrochloride (manufactured by Nichiri Kagaku Co., Ltd.) aqueous solution to a skimmed milk culture medium at a final concentration of 0.05 (w/v) % and performing heat sterilization after the addition of the suspension or the solution, and a skimmed milk culture medium (individual heating culture medium) was prepared in anaerobic conditions by adding the suspension or the solution to a skimmed milk culture medium at a final concentration of 0.05 (w/v) % after heat sterilization and immediately before inoculation. Here, the L-cystine aqueous suspension and the L-cysteine hydrochloride aqueous solution were prepared as a 5% (w/v) aqueous suspension and a 5% (w/v) aqueous solution, respectively, and were added to each culture medium at an amount of 1% (v/v). In order to unify the changes in the concentration and the changes in the redox potential of samples due to the addition of the solution, 1% (v/v) of sterilized water was added to the simultaneous heating culture medium immediately before inoculation, to the individual heating culture medium before heating, and to the additive-free culture medium before heating and immediately before inoculation, i.e., twice.
When bacteria were inoculated, inoculation was performed while replacing the headspace of the container with nitrogen gas, and the nitrogen gas was sealed with a butyl rubber stopper, followed by culture. The culture was performed in a thermostat water bath set to 37° C. for 12 hours.
The pH of a culture medium or a bacterial solution was measured using a desk-top pH meter (F52, manufactured by HORIBA, Ltd.).
The amount of a 0.1 N sodium hydroxide aqueous solution for 9.0 g of a bacterial solution required to reach a pH of 8.5 was defined as acidity. The measurement was performed using an automatic titrator (manufactured by HIRANUMA Co., Ltd.).
Regardless of the bacterial strain, a bacterial solution was appropriately diluted with a 0.85% (w/v) sodium chloride aqueous solution (physiological saline solution). The diluted bacterial solution was inoculated with a spiral plater EDDY JET (manufactured by IUL Instruments GmbH) on a plate culture medium of TOS propionate agar medium (manufactured by Yakult Pharmaceutical Industry Co., Ltd.) in the case of bacteria of the genus Bifidobacterium and a plate culture medium of BCP Added Plate Count medium (manufactured by EIKEN CHEMICAL CO., LTD.) in the case of bacteria of the genus Lactobacillus, followed by culture at 37° C. for 48 to 72 hours. The grown colonies were counted as the viable cell count. The bacteria of the genus Lactobacillus were cultured in aerobic conditions, and the bacteria of the genus Bifidobacterium were cultured in anaerobic conditions (Anaero Pack, manufactured by MITSUBISHI GAS CHEMICAL COMPANY, INC.). Colonies were counted using a colony counter ProtoCOL (manufactured by Synoptics Ltd.).
As in Example 1, each simultaneous heating culture medium of milk and L-cystine or L-cysteine was prepared. The addition concentration of L-cystine or L-cysteine was adjusted to 0.001, 0.003, 0.005, 0.01, 0.03, 0.05, or 0.1% (w/v) as the final concentration. […]

[2] = system: Lactobacillus acidophilus YIT 0198; assay: Culture of YIT 0198 in skimmed milk culture medium with L-cystine or L-cysteine; format: cell-based; conditions: YIT 0198, skimmed milk culture medium, 0.05 (w/v) %, 37° C., 12 hours, FIG. 1
Experimental: as §1
A skimmed milk powder (ABC, manufactured by MEGMILK SNOW BRAND Co., Ltd.) was dissolved in RO water at 12% (w/v), the solution was dispensed in 10 mL aliquots in a rimmed medium-sized test tube while replacing the headspace with nitrogen gas and sealed with a butyl rubber stopper. Subsequently, the solution was sterilized by heat in an autoclave (SX-500, manufactured by Tomy Seiko Co., Ltd.) at 115° C. for 30 minutes to provide a skimmed milk culture medium (additive-free culture medium). […]
The pH of a culture medium or a bacterial solution was measured using a desk-top pH meter (F52, manufactured by HORIBA, Ltd.). […]
Regardless of the bacterial strain, a bacterial solution was appropriately diluted with a 0.85% (w/v) sodium chloride aqueous solution (physiological saline solution). […] The grown colonies were counted as the viable cell count. […] Colonies were counted using a colony counter ProtoCOL (manufactured by Synoptics Ltd.).

[3] = BbY, milk, L-cysteine 0.03% (w/v), filter sterilization (0.22 μm, no heating), culture time 9 h
[4] = BbY, milk, L-cysteine 0.03% (w/v), filter sterilization (0.22 μm, no heating), culture time 12 h
[5] = BbY, milk, L-cysteine 0.03% (w/v), individual heating, culture time 9 h
[6] = BbY, milk, L-cysteine 0.03% (w/v), individual heating, culture time 12 h
[7] = BbY, milk, L-cysteine, simultaneous heating, culture time 9 h
[8] = BbY, milk, L-cysteine, simultaneous heating, culture time 12 h
[9] = BbY, skimmed milk, 0.05 (w/v) %, cultured 12 hours
[10] = BbY, skimmed milk, L-cystine 0.03% (w/v), 115° C. for 30 min, after heat sterilization (individual heating), 12 hours
[11] = BbY, skimmed milk, L-cystine 0.03% (w/v), 115° C. for 30 min, before heat sterilization (simultaneous heating), 12 hours
[12] = BbY, skimmed milk, L-cystine 0.03% (w/v), 121° C. for 30 min, after heat sterilization (individual heating), 12 hours
[13] = BbY, skimmed milk, L-cystine 0.03% (w/v), 121° C. for 30 min, before heat sterilization (simultaneous heating), 12 hours

Cl.N[C@@H](CS)C(=O)O [L-cysteine, L-cysteine hydrochloride]
growth rate of the viable cell count, simultaneous versus individual heating (growth curve) ([1]; BbY): higher in the case of the simultaneous heating | Acidity [1, 3]: 3.62 ml/9 g | Viable cell count [1, 3]: 8.92 × 10^8 CFU/ml | pH [1, 3]: 5.40 | Acidity [1, 4]: 5.12 ml/9 g | Viable cell count [1, 4]: 1.64 × 10^9 CFU/ml | pH [1, 4]: 4.94 | Acidity [1, 5]: 3.59 ml/9 g | Viable cell count [1, 5]: 7.77 × 10^8 CFU/ml | pH [1, 5]: 5.42 | Acidity [1, 6]: 5.04 ml/9 g | Viable cell count [1, 6]: 1.78 × 10^9 CFU/ml | pH [1, 6]: 5.02 | Acidity [1, 7]: 4.47 ml/9 g | Viable cell count [1, 7]: 1.34 × 10^9 CFU/ml | pH [1, 7]: 5.17 | Acidity [1, 8]: 8.05 ml/9 g | Viable cell count [1, 8]: 3.46 × 10^9 CFU/ml | pH [1, 8]: 4.64 | viable cell count and acidity versus culture medium not containing L-cystine and L-cysteine ([1]; BbY): increased | concentration at which the viable cell count was maximum ([1]; BbY): 0.03 % (w/v) | promotion of growth by simultaneous heating with milk ([1]; FIGS. 1 and 2): promotion of growth was observed | difference in the culture state of BbY, individual heating versus filter sterilization ([1]; L-cysteine added to milk at 0.03% (w/v)): no difference | growth promotion by addition [2]: not observed

N[C@@H](CSSC[C@H](N)C(=O)O)C(=O)O [L-cystine]
growth rate of the viable cell count, simultaneous versus individual heating (growth curve) ([1]; BbY): higher in the case of the simultaneous heating | viable cell count and acidity versus culture medium not containing L-cystine and L-cysteine ([1]; BbY): increased | concentration at which the viable cell count was maximum ([1]; BbY): 0.01 % (w/v) | acidity higher with simultaneous heating than individual heating [1, 9]: 1.3 mL/9 g | viable cell count increase compared to absence of L-cystine [1, 9]: 5.6 times | viable cell count, simultaneous heating versus individual heating [1, 9]: the same | Acidity [1, 10]: 3.82 mL/9 g | Viable cell count [1, 10]: 1.29 × 10^9 CFU/mL | pH [1, 10]: 5.34 | Acidity [1, 11]: 5.40 mL/9 g | Viable cell count [1, 11]: 1.89 × 10^9 CFU/mL | pH [1, 11]: 5.00 | Acidity [1, 12]: 4.00 mL/9 g | Viable cell count [1, 12]: 1.12 × 10^9 CFU/mL | pH [1, 12]: 5.26 | Acidity [1, 13]: 5.42 mL/9 g | Viable cell count [1, 13]: 1.86 × 10^9 CFU/mL | pH [1, 13]: 4.96 | growth promotion by addition [2]: not observed
